Results on ten compounds are retold here after patent US20160009772A1, “CELL PENETRATING PEPTIDES WHICH BIND IRF5” (priority 2012, published 2016).

The term IC50 denotes the concentration that gives 50% inhibition.

One data set concerns the target T1, Wild type IRF5 (222-467) (Homo sapiens, UniProt Q13568).
T1 construct: S430D phosphomimetic construct of IRF5 (222-467) as well as WT (222-467)
Description: FRET IRF5 dimerization inhibition assay (TR-FRET), WT construct. Type of data set: binding. On the technique in general: In TR-FRET formats the signal depends on donor and acceptor labels being close together.

The test system of another data set is THP-1 cells. Description: Cytotoxicity (cell titer glo) as headed in Table 3. Type of data set: cell-based, human. As to conditions: cytotoxicity defined as greater than 40% loss of cells. Here is the method: THP-1 cells obtained from ATCC were seeded at 50 k cells/100 μl/well in a 96 well plate (Corning Cat#3340). Peptides were dissolved in DMSO at 10 mM as stock solution, then 1:10 in water at 1 mM, mix well. R848 (Enzo Cat#ALX-420-038-M005) was dissolved in DMSO (Sigma Cat#D2650) at 10 mM. […] R848 was added to the 96-well cell plate at a final concentration of 10 μM, and cells were incubated at 37° C. for 24 h. The supernatant was tested for IL6 by Alphalisa (Perkin Elmer AL233C) as per manufacturer's instructions. Viability of the cells was measured by cell titer glo (Promega).

Data set [1] concerns NFκB nuclear translocation in HeLa cells. The experiment in a line: NFκB translocation assay (TNFα mediated, high content imaging). Type of data set: cell-based. As to conditions: 50 μM peptide; TNFα induced NFkB translocation in HeLa cells. The protocol:
The selectivity of the CPP's over NFκB was determined using a high content screening assay wherein TNFα mediated nuclear translocation of NFκB was determined by imaging.
HeLa cells were plated at 5000 cells/well in 96 well Perkin Elmer ViewPlates and incubated overnight at 37 C. Media was aspirated and compounds pre-diluted in 0.05% BSA Hanks/20 mM HEPES were added in duplicate at various concentrations for 30 minutes. Wells were stimulated with 20 μl of 150 ng/ml TNFα for 30 minutes at 37 C. Wells were aspirated and the cells were fixed with 3.7% formaldehyde solution for 15 minutes at room temperature. The fixative was removed and the plates were washed with PBS. The NFkB translocation assay, based upon detection of an antibody to p65 (Thermo-Fisher), was completed and read on the Perkin Elmer Operetta at 40×.

The target of another data set is T2, IRF5 (222-467, S430D) (Homo sapiens, UniProt Q13568, S440D).
T2 construct: 250 nM His tag IRF5(222-467, S430D); 100 nM biotin tag IRF5(222-467, S430D)
The experiment in a line: FRET IRF5 dimerization inhibition assay (TR-FRET), S430D construct. Type of data set: binding.

Where [2] appears, read: Table 1, WT IRF5 (222-467), average of 3 experiments ± s.d., read-out: WT IC50.
Setting [3] is: Table 1, S430D phosphomimetic construct of IRF5 (222-467), average of 3 experiments ± s.d., read-out: S430D IC50.
[4] abbreviates: Table 2, WT IRF5 (222-467), read-out: WT IC50.

Like-named read-outs stand apart in the source and are kept apart here. Bounds are passed on as bounds.

T2 sequence (Q13568 232-477 S440D): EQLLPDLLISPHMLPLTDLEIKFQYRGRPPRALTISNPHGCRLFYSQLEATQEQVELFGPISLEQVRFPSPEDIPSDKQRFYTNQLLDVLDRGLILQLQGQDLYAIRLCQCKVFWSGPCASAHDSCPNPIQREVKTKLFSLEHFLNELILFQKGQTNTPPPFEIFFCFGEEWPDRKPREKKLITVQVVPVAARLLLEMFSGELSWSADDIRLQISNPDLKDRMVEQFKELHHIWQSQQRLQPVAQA
T1 sequence (Q13568 232-477): as the sequence (Q13568 232-477 S440D) above, with D209S counted along it
Description for IRF5 (222-467, S430D): (§1) The following steps may then be performed: • 1) Prepare 100 nM of biotin-IRF5(S430D) (0.96 mg/ml or 32 uM,) and 250 nM His-IRF5(S430D) (1.51 mg/ml or 51 uM,) in AB1 • 2) Add 50 ul/well of solution in (1) into peptide solutions in 96-well PP plates as described above and incubate at RT for 20 min. • 3) Prepare 10 nM Eu-labeled streptavidin and 80 nM APC-labeled anti-His Ab in AB2 (AB1 w/o DTT) containing 5% DMSO and add 17 ul/well into solutions in (4). • 4) Transfer 30 ul/well into 384-well PP plate (Matrix) and incubate at 40 C for 1 day.
(§2) To test the ability of compounds to inhibit IRF5 dimerization a time-resolved fluorescence resonance energy transfer (TR-FRET) was developed. Binding of recombinant His tagged IRF5 (222-467 constructs) to recombinant biotin tagged IRF5 was measured by FRET between Europium labeled anti-GST antibody and Stretavidin-conjugated Allophycocyanin. […] The IRF5 S430 and WT (222-467) constructs were then used to test the ability of compounds to inhibit dimerization. […] Fifty microliters per well of 100 nM biotin tag IRF5(222-467, S430D) and 250 nM His tag IRF5(222-467, S430D) in Assay Buffer (50 mM Tris-HCl, pH 7.4, 100 mM NaCl, 1 mM DTT and 0.2 mg/ml BSA) were added. The samples were incubated at room temperature for 20 min. Seventeen microliters per well of detection solution containing 10 nM europium (Eu) conjugated streptavidin and 80 nM allophycocyanin (APC) conjugated anti-His antibody (Columbia Biosciences) in Assay Buffer (without DTT) were added. The samples were incubated at room temperature for 60 min followed by overnight incubation at 40 C and 30 ul per well were transferred to 384-well polystyrene plates (Matrix, Thermal Scientific) in duplicates. Assay signals were monitored by reading excitation at 340 nm and emission fluorescence at 615 nm and 665 nm on an Envision reader. TR-FRET signals were calculated by the ratio of acceptor to donor signals after subtracting both blank and donor cross-talk values from acceptor signal (Huang, K S and Vassilev, L T, Methods Enzymol., 399, 717-728 (2005)). The data were processed in Excel XLfit and the IC50 values were calculated using a nonlinear curve-fitting algorithm (four parameter equation). The data represent an average of 3 independent experiments (each run in triplicates) and the reported errors represent standard deviation (s.d.).
Description for Wild type IRF5 (222-467): as §1, §2

Turning to `CSCC[C@H](NC(C)=O)C(=O)N[C@@H](C)C(=O)N[C@@H](CC(N)=O)C(=O)N[C@@H](CC(C)C)C(=O)NCC(=O)N[C@@H](Cc1ccc(O)cc1)C(=O)N[C@@H](Cc1c[nH]c2ccccc12)C(=O)N[C@@H](CC(C)C)C(=O)N[C@@H](CC(C)C)C(=O)N[C@@H](CC(C)C)C(=O)N[C@@H](CC(C)C)C(=O)N[C@@H](Cc1ccccc1)C(=O)N[C@H](C(=O)N[C@H](C(=O)N[C@@H](CCSC)C(=O)N[C@@H](Cc1c[nH]c2ccccc12)C(=O)N[C@H](C(=O)N[C@@H](CC(=O)O)C(=O)N[C@H](C(=O)NCC(=O)N[C@@H](CC(C)C)C(=O)N[C@@H](C)C(=O)N[C@@H](CCCCN)C(=O)N[C@@H](CCCCN)C(=O)N[C@@H](CCCNC(=N)N)C(=O)N1CCC[C@H]1C(=O)N[C@@H](CCCCN)C(=O)N1CCC[C@H]1C(N)=O)C(C)C)[C@@H](C)O)[C@@H](C)O)C(C)C` [SEQ ID NO 4], the IC50 on Wild type IRF5 (222-467) (setting [2]) is 19.5 ± 4 µM; on IRF5 (222-467, S430D) (setting [3]), 26.4 ± 4.5 µM. Besides, the “Cytotoxicity in THP-1 cells at 10 μM” value in the data set on THP-1 cells was “None”. Moreover, the “NFkB selectivity (50 μM)” value in data set [1] is listed as “No inhibition”.
As to `CSCC[C@H](NC(C)=O)C(=O)N[C@@H](C)C(=O)N[C@@H](CC(N)=O)C(=O)N[C@@H](CC(C)C)C(=O)NCC(=O)N[C@@H](Cc1ccc(O)cc1)C(=O)N[C@@H](Cc1c[nH]c2ccccc12)C(=O)N[C@@H](CC(C)C)C(=O)N[C@@H](C)C(=O)N[C@@H](CC(C)C)C(=O)N[C@@H](CC(C)C)C(=O)N[C@@H](Cc1ccccc1)C(=O)N[C@H](C(=O)N[C@H](C(=O)N[C@@H](CCSC)C(=O)N[C@@H](Cc1c[nH]c2ccccc12)C(=O)N[C@H](C(=O)N[C@@H](CC(=O)O)C(=O)N[C@H](C(=O)NCC(=O)N[C@@H](CC(C)C)C(=O)N[C@@H](Cc1ccccc1)C(=O)N[C@@H](CCCCN)C(=O)N[C@@H](CCCCN)C(=O)N[C@@H](CCCNC(=N)N)C(=O)N1CCC[C@H]1C(=O)N[C@@H](CCCCN)C(=O)N1CCC[C@H]1C(N)=O)C(C)C)[C@@H](C)O)[C@@H](C)O)C(C)C` [SEQ ID NO 5], the IC50 was 22.4 ± 6.2 µM on Wild type IRF5 (222-467) (setting [2]) and 26.6 ± 5.4 µM on IRF5 (222-467, S430D) (setting [3]). Also, the “Cytotoxicity in THP-1 cells at 10 μM” value in the data set with THP-1 cells was “None”. Besides, the “NFkB selectivity (50 μM)” value in data set [1] is on record as “No inhibition”.
For `CSCC[C@H](NC(C)=O)C(=O)N[C@@H](C)C(=O)N[C@@H](CC(N)=O)C(=O)N[C@@H](CC(C)C)C(=O)NCC(=O)N[C@@H](Cc1ccc(O)cc1)C(=O)N[C@@H](Cc1c[nH]c2ccccc12)C(=O)N[C@@H](CC(C)C)C(=O)N[C@@H](CC(C)C)C(=O)N[C@@H](C)C(=O)N[C@@H](CC(C)C)C(=O)N[C@@H](Cc1ccccc1)C(=O)N[C@H](C(=O)N[C@H](C(=O)N[C@@H](Cc1ccc(O)cc1)C(=O)N[C@@H](Cc1c[nH]c2ccccc12)C(=O)N[C@H](C(=O)N[C@@H](CC(=O)O)C(=O)N[C@@H](CC(C)C)C(=O)NCC(=O)N[C@@H](CC(C)C)C(=O)N[C@H](C(=O)N[C@@H](CCCCN)C(=O)N[C@@H](CCCCN)C(=O)N[C@@H](CCCNC(=N)N)C(=O)N1CCC[C@H]1C(=O)N[C@@H](CCCCN)C(=O)N1CCC[C@H]1C(N)=O)C(C)C)[C@@H](C)O)[C@@H](C)O)C(C)C` [SEQ ID NO 6] the same measures were 15.3 ± 4.8 µM, 15.4 ± 5.8 µM, “None” and “No inhibition”.
For `CSCC[C@H](NC(C)=O)C(=O)N[C@@H](C)C(=O)N[C@@H](CC(N)=O)C(=O)N[C@@H](CC(C)C)C(=O)NCC(=O)N[C@@H](Cc1ccc(O)cc1)C(=O)N[C@@H](Cc1c[nH]c2ccccc12)C(=O)N[C@@H](CC(C)C)C(=O)N[C@@H](Cc1ccc(O)cc1)C(=O)N[C@@H](C)C(=O)N[C@@H](CC(C)C)C(=O)N[C@@H](Cc1ccccc1)C(=O)N[C@@H](CC(C)C)C(=O)N[C@H](C(=O)N[C@@H](CCSC)C(=O)N[C@H](C(=O)N[C@H](C(=O)N[C@@H](CC(=O)O)C(=O)N[C@H](C(=O)NCC(=O)N[C@@H](CC(C)C)C(=O)N[C@@H](Cc1ccccc1)C(=O)N[C@@H](CCCCN)C(=O)N[C@@H](CCCCN)C(=O)N[C@@H](CCCNC(=N)N)C(=O)N1CCC[C@H]1C(=O)N[C@@H](CCCCN)C(=O)N1CCC[C@H]1C(N)=O)C(C)C)[C@@H](C)O)C(C)C)[C@@H](C)O` [SEQ ID NO 7] the same measures were 41.9 ± 6.4 µM, 34.2 ± 5.5 µM, “None” and “No inhibition”.
For “Ac-IRLQISNPDLKDLMVQWFKDGGPSSGAPPPS-NH2 [SEQ ID NO 9]”, the IC50 on Wild type IRF5 (222-467) (setting [4]) turned out to be 1.4 µM.
With “Ac-IRLQISNPYLKFIPLKRAIWLIK-NH2 [SEQ ID NO 13]”, the “Cytotoxicity in THP-1 cells at 10 μM” value in the data set on THP-1 cells was “None”. Besides, the “NFkB selectivity (50 μM)” value in data set [1] is “No inhibition”.
With “Ac-KDLMVQWFKDGGPSSGAPPPS-NH2 [SEQ ID NO 8]”, the IC50 at Wild type IRF5 (222-467) (setting [4]) was 0.79 µM; on IRF5 (222-467, S430D) (Table 2, S430D phosphomimetic construct of IRF5 (222-467), read-out: S430D IC50) it was 1.68 µM.
Regarding “Ac-MIILIISFPKHKDWKVILVK-NH2 [SEQ ID NO 14]”, the “Cytotoxicity in THP-1 cells at 10 μM” value with THP-1 cells is listed as “None”. Further, the “NFkB selectivity (50 μM)” value in data set [1] is listed as “No inhibition”.
Turning to “Ac-PFPPLPIGEEAPKDDMVRFFKDLHQYLNVV-NH2 [SEQ ID NO 10]”, the IC50 at Wild type IRF5 (222-467) (setting [4]) was 0.35 µM.
For the compound “Ac-YLKFIPLKRAIWLIK-NH2 [SEQ ID NO 23, Ac-YLKFIPLKRAIWLIK-NH2, reference compound]”, the IC50 against Wild type IRF5 (222-467) is more than 75 µM; on IRF5 (222-467, S430D) it was more than 75 µM. The “affinity in FRET dimerization assay” value at IRF5 (222-467, S430D) (S430D and WT IRF5 (222-467) constructs) was “does not display any affinity”.
